# *1 amine or outer side, *2 acyl side, *3 side chain or, on linkers, in order; H or OH if unused. Where a SMILES comes first, the peptide text is derived from it. Bridges are numbered along the chain shown (N, C = ends). [ ]: non-standard residue; d: D form. X34 = O=C(C[C@@H](Cc1ccccc1)C(=O)[*:2])C12CC(CN[*:1])(C1)C2; Ala(1-bicyclo(1.1.1)pentyl) = N[C@@H](CC12CC(C1)C2)C(=O)O; NMeNva(5-imidazol-1-yl) = CN[C@@H](CCCn1ccnc1)C(=O)O; Phe(4-guanidino) = N=C(N)Nc1ccc(C[C@H](N)C(=O)O)cc1; X72 = CC1(C)NC(=N)N(CCC[C@H](N[*:1])C(=O)[*:2])C1=O; Ala(pyrimidin-5-yl) = N[C@@H](Cc1cncnc1)C(=O)O; NMePhe(3-Me) = CN[C@@H](Cc1cccc(C)c1)C(=O)O; NMePhe(4-Me) = CN[C@@H](Cc1ccc(C)cc1)C(=O)O; Trp(1-Me) = Cn1cc(C[C@H](N)C(=O)O)c2ccccc21; NMeArg(Me) = CNC(=N)NCCC[C@H](NC)C(=O)O; X11 = CC(C)(F)CC[C@H](N[*:1])C(=O)[*:2]; Nle(5,5-F2) = CC(F)(F)CC[C@H](N)C(=O)O; 1Nal = N[C@@H](Cc1cccc2ccccc12)C(=O)O; NHCH2CH2SCH2CO = O=C(CSCCN[*:1])[*:2]; Ala(cPent) = N[C@@H](CC1CCCC1)C(=O)O; Phe(2-F) = N[C@@H](Cc1ccccc1F)C(=O)O; NMe3Pal = CN[C@@H](Cc1cccnc1)C(=O)O; X1 = O=C(C12CC(CN[*:1])(C1)C2)[*:2]; X17 = O=C([C@H](CCCCF)N[*:1])[*:2]; X41 = COCCC[C@H](N[*:1])C(=O)[*:2]; Ala(cPr) = N[C@@H](CC1CC1)C(=O)O; NMeF = CN[C@@H](Cc1ccccc1)C(=O)O; PhLac = O=C(O)[C@@H](O)Cc1ccccc1; 3Pal = N[C@@H](Cc1cccnc1)C(=O)O; d3Pal = N[C@H](Cc1cccnc1)C(=O)O; Gly(N(CH2)3NH2) = NCCCNCC(=O)O; Ahp(2) = CCCCC[C@H](N)C(=O)O; Cba = N[C@@H](CC1CCC1)C(=O)O; hLeu = CC(C)CC[C@H](N)C(=O)O; αMeC = C[C@](N)(CS)C(=O)O; NMeA = CN[C@@H](C)C(=O)O; Nle = CCCC[C@H](N)C(=O)O; Nva = CCC[C@H](N)C(=O)O
# Molecular target: KRAS-G12D protein (Homo sapiens, UniProt P01116, G12D)
# Experiment: SOS-mediated nucleotide exchange assay (BODIPY-GDP / Tb-streptavidin TR-FRET)
# Type: biochemical
# KRAS-G12D protein, sequence (P01116 1-188 isoform P01116-2 G12D): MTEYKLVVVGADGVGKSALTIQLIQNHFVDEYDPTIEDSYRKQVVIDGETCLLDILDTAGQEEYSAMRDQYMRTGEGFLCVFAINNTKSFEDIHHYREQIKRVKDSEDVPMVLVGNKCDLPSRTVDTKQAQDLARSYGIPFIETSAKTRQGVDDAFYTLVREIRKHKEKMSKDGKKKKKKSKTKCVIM
row,Compound,EC50
1,"CCCC[C@@H]1NC(=O)[C@H](CCCOC)NC(=O)[C@H](CC2CCC2)NC(=O)[C@H](Cc2cccnc2)NC(=O)[C@H](CCCNC(=N)N)NC(=O)[C@H](Cc2ccccc2)NC(=O)CSC[C@@](C)(C(N)=O)NC(=O)[C@H](Cc2ccccc2)N(C)C1=O [compound 55, cyclo(F-R-3Pal-cBuA-NvaOMe-Nle-NMeF-aMeCl-ClAc)] ({CH2CO}-FR[3Pal][Cba][X41][Nle][NMeF][αMeC]-NH2; thioether N-8)",4410 nM
2,"CCCC[C@@H]1NC(=O)[C@H](CCCCN)NC(=O)[C@H](CCCNC(=N)N)NC(=O)[C@H](Cc2cccc3ccccc23)NC(=O)CSCCNC(=O)[C@H](Cc2ccccc2)N(C)C(=O)[C@H](CCCC)NC(=O)[C@H](Cc2ccc(O)cc2)NC1=O [compound 71, cyclo(INal-R-K-Nle-Y-Nle-NMeF-Cysteamine-ClAc)] (cyclo([1Nal]RK[Nle]Y[Nle][NMeF][NHCH2CH2SCH2CO]))",526 nM
3,"CCCC[C@@H]1NC(=O)[C@H](Cc2ccccc2F)NC(=O)[C@H](CC2CCC2)NC(=O)[C@@H](Cc2cccnc2)NC(=O)[C@H](CCCN2C(=N)NC(C)(C)C2=O)NC(=O)[C@H](Cc2ccccc2)NC(=O)C23CC(CNC(=O)[C@H](Cc4cccnc4)N(C)C1=O)(C2)C3 [compound 105, cyclo(F-baceNva-d3Pal-cBuA-Phe2F-Nle-NMe3Pal-amBCP)] (cyclo(F[X72][d3Pal][Cba][Phe(2-F)][Nle][NMe3Pal][X1]))",7.56 nM
4,"CCC[C@@H]1NC(=O)[C@H](Cc2ccc(O)cc2)NC(=O)[C@H](CC(C)C)NC(=O)[C@H](Cc2ccc(O)cc2)NC(=O)[C@H](CCCNC(=N)N)NC(=O)[C@H](Cc2ccccc2)NC(=O)CSC[C@H](C(N)=O)NC(=O)[C@H](Cc2ccccc2)N(C)C1=O [compound 21, cyclo(F-R-Y-L-Y-Nva-NMeF-dCl-ClAc)]",6420 nM
5,"CCCCC[C@@H]1NC(=O)[C@H](Cc2ccc(OC)cc2)NC(=O)[C@H](CC2CCC2)NC(=O)[C@H](Cc2ccc(NC(=N)N)cc2)NC(=O)[C@H](CCCNC(=N)NC)N(C)C(=O)[C@H](Cc2ccccc2)NC(=O)CSC[C@@](C)(C(N)=O)NC(=O)[C@H](Cc2ccccc2)N(C)C1=O [compound 380, cyclo(F-NMeArgMe-Phe4Gn-cBuA-TyrOMe-Abp-NMeF-aMeCl-ClAc)] ({CH2CO}-F[NMeArg(Me)][Phe(4-guanidino)][Cba]Y(Me)[Ahp(2)][NMeF][αMeC]-NH2; thioether N-8)",1.68 nM
6,"CCCC[C@@H]1NC(=O)[C@H](Cc2cncnc2)NC(=O)[C@H](CCCn2ccnc2)N(C)C(=O)[C@H](Cc2ccccc2)OC(=O)C23CC(CNC(=O)[C@H](Cc4ccccc4)N(C)C(=O)[C@H](CCCC)NC(=O)[C@H](Cc4ccccc4F)NC1=O)(C2)C3 (single isomer, unassigned) [compound 223, cyclo(FLac-NMeNvalmid-PyrimAla-Nle-Phe2F-Nle-NMeF-amBCP)]",25.3 nM
7,"C[C@H]1C(=O)N[C@@H](Cc2cncnc2)C(=O)N[C@@H](CCCCF)C(=O)N[C@@H](Cc2ccccc2F)C(=O)N[C@@H](CCCCF)C(=O)N(C)[C@@H](Cc2ccccc2)C(=O)NCC23CC(C2)(C3)C(=O)O[C@@H](Cc2ccccc2)C(=O)N1C [compound 128, cyclo(FLac-NMeA-PyrimAla-NleF-Phe2F-NleF-NMeF-amBCP)] (cyclo([NMeA][Ala(pyrimidin-5-yl)][X17][Phe(2-F)][X17][NMeF][X1][PhLac]))",37.4 nM
8,"CCCC[C@@H]1NC(=O)[C@H](Cc2cncnc2)NC(=O)[C@H](CCCn2ccnc2)N(C)C(=O)[C@H](Cc2ccccc2)OC(=O)C23CC(CNC(=O)[C@H](Cc4cccnc4)N(C)C(=O)[C@H](CCCC)NC(=O)[C@H](Cc4ccccc4F)NC1=O)(C2)C3 [compound 240, cyclo(FLac-NMeNvalmid-PyrimAla-Nle-Phe2F-Nle-NMe3Pal-amBCP)] (cyclo([NMe3Pal][X1][PhLac][NMeNva(5-imidazol-1-yl)][Ala(pyrimidin-5-yl)][Nle][Phe(2-F)][Nle]))",27.2 nM
9,"CC(C)CC[C@@H]1NC(=O)[C@H](Cc2ccccc2F)NC(=O)[C@H](CC23CC(C2)C3)NC(=O)[C@H](Cc2cncnc2)NC(=O)[C@H](C)N(C)C(=O)[C@H](Cc2ccccc2)OC(=O)C23CC(CNC(=O)[C@H](Cc4ccccc4)N(C)C1=O)(C2)C3 [compound 272, cyclo(FLac-NMeA-PyrimAla-AlaPent-Phe2F-hL-NMeF-amBCP)] (cyclo([NMeA][Ala(pyrimidin-5-yl)][Ala(1-bicyclo(1.1.1)pentyl)][Phe(2-F)][hLeu][NMeF][X1][PhLac]))",477 nM
10,"CCCCC[C@@H]1NC(=O)[C@H](Cc2ccc(O)cc2)NC(=O)[C@H](CC(C)C)NC(=O)[C@H](Cc2ccc(O)cc2)NC(=O)[C@H](CCCNC(=N)N)NC(=O)[C@H](Cc2cn(C)c3ccccc23)NC(=O)CSC[C@@H](C(N)=O)NC(=O)[C@H](Cc2ccccc2)N(C)C1=O [compound 6, cyclo(TrplMe-R-Y-L-Y-Ahp-NMeF-Cl-ClAc)] ({CH2CO}-[Trp(1-Me)]RYLY[Ahp(2)][NMeF]C-NH2; thioether N-8)",288 nM
11,"C[C@H]1C(=O)N[C@@H](Cc2cncnc2)C(=O)N[C@@H](CC2CC2)C(=O)N[C@@H](Cc2ccccc2F)C(=O)N[C@@H](CCC(C)(F)F)C(=O)N(C)[C@@H](Cc2ccccc2)C(=O)NCC23CC(C2)(C3)C(=O)C[C@@H](Cc2ccccc2)C(=O)N1C [compound 290, cyclo(CPhe-NMeA~PyrimAla-cPrA-Phe2F-Nle3F2-NMeF-amBCP)] (cyclo([Ala(cPr)][Phe(2-F)][Nle(5,5-F2)][NMeF][X34][NMeA][Ala(pyrimidin-5-yl)]))",2 nM
12,"CCCC[C@@H]1NC(=O)[C@H](Cc2ccc(OC)cc2)NC(=O)[C@H](CC(C)C)NC(=O)[C@H](Cc2ccc(NC(=N)N)cc2)NC(=O)[C@H](CCC)NC(=O)[C@H](Cc2ccccc2)NC(=O)CSC[C@H](C(N)=O)NC(=O)[C@H](Cc2ccccc2)N(C)C1=O [compound 48, cyclo(F-Nva-Phe4Gn-L-TyrOMe-Nle-NMeF-dCl-ClAc)] ({CH2CO}-F[Nva][Phe(4-guanidino)]LY(Me)[Nle][NMeF][dC]-NH2; thioether N-8)",4320 nM
13,"CC(C)CC[C@@H]1NC(=O)[C@H](Cc2ccccc2F)NC(=O)[C@H](CC2CCCC2)NC(=O)[C@H](Cc2cncnc2)NC(=O)[C@H](C)N(C)C(=O)[C@H](Cc2ccccc2)OC(=O)C23CC(CNC(=O)[C@H](Cc4ccccc4)N(C)C1=O)(C2)C3 [compound 135, cyclo(FLac-NMcA-PyrimAla-cPeA-Phe2F-hL-NMeF-amBCP)] (cyclo([Ala(cPent)][Phe(2-F)][hLeu][NMeF][X1][PhLac][NMeA][Ala(pyrimidin-5-yl)]))",4.13 nM
14,"CCCCC[C@@H]1NC(=O)[C@H](Cc2ccc(OC)cc2)NC(=O)[C@H](CC2CCC2)NC(=O)[C@H](Cc2ccc(NC(=N)N)cc2)NC(=O)CN(CCCN)C(=O)[C@H](Cc2ccccc2)NC(=O)CSC[C@@](C)(C(N)=O)NC(=O)[C@H](Cc2ccccc2)N(C)C1=O [compound 388, cyclo(F-NPrNH2G-Phe4Gn-cBuA-TyrOMe-Ahp-NMeF-aMeCl-ClAc)] ({CH2CO}-F[Gly(N(CH2)3NH2)][Phe(4-guanidino)][Cba]Y(Me)[Ahp(2)][NMeF][αMeC]-NH2; thioether N-8)",121 nM
15,"C[C@H]1C(=O)N[C@@H](Cc2cncnc2)C(=O)N[C@@H](CC2CC2)C(=O)N[C@@H](Cc2ccccc2F)C(=O)N[C@@H](CCC(C)(F)F)C(=O)N(C)[C@@H](Cc2ccccc2)C(=O)NCC23CC(C2)(C3)C(=O)O[C@@H](Cc2ccccc2)C(=O)N1C [compound 276, cyclo(FLac-NMeA-PyrimAla-cPrA-Phe2F-Nle3F2-NMeF-amBCP)] (cyclo([Ala(cPr)][Phe(2-F)][Nle(5,5-F2)][NMeF][X1][PhLac][NMeA][Ala(pyrimidin-5-yl)]))",1 nM
16,"CCCC[C@@H]1NC(=O)[C@H](Cc2cncnc2)NC(=O)[C@H](C)N(C)C(=O)[C@H](Cc2ccccc2)OC(=O)C23CC(CNC(=O)[C@H](Cc4ccc(C)cc4)N(C)C(=O)[C@H](CCCC)NC(=O)[C@H](Cc4ccccc4F)NC1=O)(C2)C3 [compound 171, cyclo(FLac-NMeA-PyrimAla-Nle-Phe2F-Nle-NMePhe4Me-amBCP)] (cyclo([NMeA][Ala(pyrimidin-5-yl)][Nle][Phe(2-F)][Nle][NMePhe(4-Me)][X1][PhLac]))",19.1 nM
17,"CCCC[C@@H]1NC(=O)[C@H](CCCCN)NC(=O)[C@H](CCCNC(=N)N)NC(=O)[C@H](C(c2ccccc2)c2ccccc2)NC(=O)CSC[C@H](C(N)=O)NC(=O)[C@H](Cc2ccccc2)N(C)C(=O)[C@H](CCCC)NC(=O)[C@H](Cc2ccc(O)cc2)NC1=O [compound 149, cyclo(Dip-R-K-Nle-Y-Nle-NMeF-dCl-ClAc)]",1030 nM
18,"CCCC[C@@H]1NC(=O)[C@H](Cc2ccc(C(F)(F)F)nc2)NC(=O)[C@H](CCCn2ccnc2)N(C)C(=O)[C@H](Cc2ccccc2)OC(=O)C23CC(CNC(=O)[C@H](Cc4ccccc4)N(C)C(=O)[C@H](CCCC)NC(=O)[C@H](Cc4ccccc4F)NC1=O)(C2)C3 (single isomer, unassigned) [compound 219, cyclo(FLac-NMeNvaImid-4CF33Pal-Nle-Phe2F-Nle-NMeF-amBCP)]",62.8 nM
19,"Cc1cccc(C[C@H]2C(=O)NCC34CC(C3)(C4)C(=O)O[C@@H](Cc3ccccc3)C(=O)N(C)[C@@H](C)C(=O)N[C@@H](Cc3cncnc3)C(=O)N[C@@H](CC3CC3)C(=O)N[C@@H](Cc3ccccc3F)C(=O)N[C@@H](CCC(C)(C)F)C(=O)N2C)c1 [compound 274, cyclo(FLac-NMeA-PyrimAla-cPrA-Phe2F-hL3F-NMePhe3Me-amBCP)] (cyclo([Ala(cPr)][Phe(2-F)][X11][NMePhe(3-Me)][X1][PhLac][NMeA][Ala(pyrimidin-5-yl)]))",1 nM
20,"CCCCC[C@@H]1NC(=O)[C@H](Cc2ccc(OC)cc2)NC(=O)[C@H](CC2CCC2)NC(=O)[C@H](Cc2ccc(NC(=N)N)cc2)NC(=O)[C@H](CCCNC(=N)N)NC(=O)[C@H](Cc2ccccc2)NC(=O)CSC[C@@](C)(C(N)=O)NC(=O)[C@H](Cc2ccccc2)N(C)C1=O [compound 346, cyclo(F-R-Phe4Gn-cBuA-TyrOMe-Ahp-NMeF-aMeCl-ClAc)] ({CH2CO}-FR[Phe(4-guanidino)][Cba]Y(Me)[Ahp(2)][NMeF][αMeC]-NH2; thioether N-8)",1.24 nM
21,"CCCCC[C@@H]1NC(=O)[C@H](Cc2ccc(O)cc2)NC(=O)[C@H](CC(C)C)NC(=O)[C@H](Cc2ccc(O)cc2)NC(=O)[C@@H](CCCNC(=N)N)NC(=O)[C@H](Cc2ccccc2)NC(=O)CSC[C@@H](C(N)=O)NC(=O)[C@H](Cc2ccccc2)N(C)C1=O [compound 4, cyclo(F-dR-Y-L-Y-Ahp-NMeF-Cl-ClAc)]",3280 nM

# — US20260001914A1, “MACROCYCLIC PEPTIDES TARGETING KRAS” (Merck Sharp & Dohme LLC, priority 2022, published 2026)
